Experimental data published in publication PMC9837035 (Nature Communications, 2023).
Values joined by “and” are separate entries in the source; they are usually repeats but may differ in a detail not shown here. Identical values can stand only once.

Assays:
[1] = Liver microsomal stability assay, rat; type: in vitro ADME; conditions: for Metabolic stability, % remaining of RK-701: Rat
Experimental: (§1) [Human/Rat] Liver microsome analyses (human, rat) were performed in triplicate by the Sumika Chemical Analysis Service (SCAS) according to the standard protocols. […] [Dog/Monkey] Liver microsome analyses (dog, monkey) were performed in duplicate by RIKEN according to the same protocols as SCAS.

PRMT8 = PRMT8 (Homo sapiens, UniProt Q9NR22); assay: biochemical
EZH1 [2] = biological target: T1, EZH1 (Homo sapiens, UniProt Q92800); assay: biochemical
[3] = Liver microsomal stability assay, dog; type: in vitro ADME; conditions: for Metabolic stability, % remaining of RK-701: Dog
Experimental: as §1

EZH1 [4] = biological target: T1, EZH1; assay: Radioisotope-based methyltransferase assay (selectivity)
H3K9me2 in HUDEP-2 cells = assay: Western blotting of H3K9me2 in HUDEP-2 cells; type: cell-based, human; conditions: HUDEP-2, 4 days
Experimental: Preparation of cell lysates and western blotting were performed as described previously. Protein from cells lysates in lysis buffer (50 mM Tris-HCl (pH 7.5), 150 mM NaCl, 5 mM EDTA, 0.1% NP-40, 1 mM dithiothreitol) were separated by sodium dodecyl sulfate–polyacrylamide gel electrophoresis (SDS-PAGE) and transferred to a polyvinylidene difluoride (PVDF) membrane (Millipore) by electroblotting. The membranes incubated with primary antibodies overnight at 4 °C and secondary antibodies for 1 h at room temperature. The immune complexes were detected with the Immobilon Western Chemiluminescent HRP Substrate (Millipore). Luminescence was analyzed on a FUSION SOLO S (Vilber). Western blot bands were visualized using Evolution Capt software (M&S Instruments Inc.). Primary antibodies used were anti-G9a (1:1000, CST, #3306), anti–α-tubulin (1:5000, Abcam, ab18251), anti-H3K9me2 (1:3000, Abcam, ab1220), anti-H3 (1:5000, Abcam, ab1791), anti-H3K27me3 (1:3000, Sigma, 07-449), anti-GLP (1:1000, CST, #35005), anti-FLAG (100 ng/ml, Fujifilm, 01422383), anti-His (1:5000, MBL, PM032), anti-BCL11A (1:1000, abcam, ab19487), anti-ZBTB7A (1:1000, CST, #50565), anti-CHD3 (1:1000, Novus Biologicals, NB100-60412), and anti-CHD4 (1:1000, abcam, ab240640). Uncropped scans of all of the blots are available in Source Data file.

SUV39H1 = biological target: T2, SUV39H1 (Homo sapiens, UniProt O43463); assay: Radioisotope-based methyltransferase assay (selectivity); type: biochemical
T2 construct: purchased Reaction Biology
T2 sequence (O43463 whole entry): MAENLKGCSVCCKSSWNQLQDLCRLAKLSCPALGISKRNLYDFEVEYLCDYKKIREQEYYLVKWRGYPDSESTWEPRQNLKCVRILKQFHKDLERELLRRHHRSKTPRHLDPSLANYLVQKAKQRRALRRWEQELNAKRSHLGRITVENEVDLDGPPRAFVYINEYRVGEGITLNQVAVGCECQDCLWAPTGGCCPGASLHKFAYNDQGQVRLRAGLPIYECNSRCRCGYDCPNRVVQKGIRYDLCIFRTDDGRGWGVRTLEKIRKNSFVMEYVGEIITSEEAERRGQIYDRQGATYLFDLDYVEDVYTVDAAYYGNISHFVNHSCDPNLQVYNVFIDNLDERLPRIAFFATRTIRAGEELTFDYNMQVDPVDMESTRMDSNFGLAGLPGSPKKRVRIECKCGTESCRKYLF

T1 sequence (Q92800 whole entry): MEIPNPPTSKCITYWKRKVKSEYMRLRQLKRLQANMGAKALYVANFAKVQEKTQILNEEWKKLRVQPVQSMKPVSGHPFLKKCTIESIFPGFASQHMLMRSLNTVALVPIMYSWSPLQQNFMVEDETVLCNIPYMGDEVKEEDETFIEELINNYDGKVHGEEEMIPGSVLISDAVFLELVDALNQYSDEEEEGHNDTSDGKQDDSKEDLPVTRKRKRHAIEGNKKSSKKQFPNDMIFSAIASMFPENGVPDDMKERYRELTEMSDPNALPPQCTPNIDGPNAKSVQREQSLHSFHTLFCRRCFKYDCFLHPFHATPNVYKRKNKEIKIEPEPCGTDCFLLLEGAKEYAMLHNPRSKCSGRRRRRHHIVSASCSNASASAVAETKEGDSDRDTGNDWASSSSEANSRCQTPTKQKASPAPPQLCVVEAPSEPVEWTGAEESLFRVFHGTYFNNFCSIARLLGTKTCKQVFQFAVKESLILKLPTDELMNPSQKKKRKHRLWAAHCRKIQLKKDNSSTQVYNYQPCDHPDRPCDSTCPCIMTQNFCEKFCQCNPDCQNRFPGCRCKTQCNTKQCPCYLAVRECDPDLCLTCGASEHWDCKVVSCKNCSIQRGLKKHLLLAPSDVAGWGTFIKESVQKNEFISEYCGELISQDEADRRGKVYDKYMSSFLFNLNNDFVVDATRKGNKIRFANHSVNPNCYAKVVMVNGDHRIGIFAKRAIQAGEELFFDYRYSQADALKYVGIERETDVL
T1 sequence (O75530 whole entry partner): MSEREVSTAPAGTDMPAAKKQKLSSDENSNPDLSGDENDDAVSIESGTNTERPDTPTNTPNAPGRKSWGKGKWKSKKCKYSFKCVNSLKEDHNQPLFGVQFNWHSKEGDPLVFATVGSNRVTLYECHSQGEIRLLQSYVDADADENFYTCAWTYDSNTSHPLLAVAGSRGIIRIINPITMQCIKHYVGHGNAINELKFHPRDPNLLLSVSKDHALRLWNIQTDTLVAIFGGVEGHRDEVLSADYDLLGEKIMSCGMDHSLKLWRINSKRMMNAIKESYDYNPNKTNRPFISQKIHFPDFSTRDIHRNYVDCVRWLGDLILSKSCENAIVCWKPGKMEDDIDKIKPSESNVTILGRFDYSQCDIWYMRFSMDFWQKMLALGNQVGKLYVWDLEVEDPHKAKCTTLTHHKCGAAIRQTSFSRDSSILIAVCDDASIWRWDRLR
T1 sequence (Q15022 whole entry partner): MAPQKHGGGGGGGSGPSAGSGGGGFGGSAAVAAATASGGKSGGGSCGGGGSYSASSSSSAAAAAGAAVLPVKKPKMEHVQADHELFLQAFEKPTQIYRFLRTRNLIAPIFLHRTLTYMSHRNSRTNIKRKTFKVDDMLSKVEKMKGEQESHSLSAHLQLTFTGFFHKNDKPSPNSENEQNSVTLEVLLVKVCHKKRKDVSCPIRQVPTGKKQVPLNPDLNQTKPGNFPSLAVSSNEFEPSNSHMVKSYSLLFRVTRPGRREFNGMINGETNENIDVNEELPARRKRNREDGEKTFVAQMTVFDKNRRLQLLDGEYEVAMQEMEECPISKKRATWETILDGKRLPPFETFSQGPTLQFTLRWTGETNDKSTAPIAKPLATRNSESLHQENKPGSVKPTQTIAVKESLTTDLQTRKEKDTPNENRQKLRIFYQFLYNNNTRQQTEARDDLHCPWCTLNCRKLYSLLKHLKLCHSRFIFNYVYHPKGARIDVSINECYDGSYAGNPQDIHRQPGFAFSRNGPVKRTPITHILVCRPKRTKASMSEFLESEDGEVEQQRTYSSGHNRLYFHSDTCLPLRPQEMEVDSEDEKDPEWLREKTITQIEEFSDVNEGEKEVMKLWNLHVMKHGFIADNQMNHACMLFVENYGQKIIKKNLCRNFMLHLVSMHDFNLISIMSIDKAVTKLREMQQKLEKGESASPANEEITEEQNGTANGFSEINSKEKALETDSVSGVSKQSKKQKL
T1 sequence (Q09028 whole entry partner): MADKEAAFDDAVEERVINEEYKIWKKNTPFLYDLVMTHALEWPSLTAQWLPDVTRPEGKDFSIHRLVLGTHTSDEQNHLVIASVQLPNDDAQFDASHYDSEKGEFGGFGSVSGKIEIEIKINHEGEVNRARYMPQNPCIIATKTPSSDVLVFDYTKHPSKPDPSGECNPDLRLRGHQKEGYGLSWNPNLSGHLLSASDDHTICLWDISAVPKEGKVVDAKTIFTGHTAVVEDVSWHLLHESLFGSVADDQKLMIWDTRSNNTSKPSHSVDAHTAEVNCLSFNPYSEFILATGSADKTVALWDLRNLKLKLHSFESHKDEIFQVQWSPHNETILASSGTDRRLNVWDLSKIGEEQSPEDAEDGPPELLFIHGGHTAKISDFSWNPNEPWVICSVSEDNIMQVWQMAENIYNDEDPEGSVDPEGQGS
T1 sequence (Q6ZN18 whole entry partner): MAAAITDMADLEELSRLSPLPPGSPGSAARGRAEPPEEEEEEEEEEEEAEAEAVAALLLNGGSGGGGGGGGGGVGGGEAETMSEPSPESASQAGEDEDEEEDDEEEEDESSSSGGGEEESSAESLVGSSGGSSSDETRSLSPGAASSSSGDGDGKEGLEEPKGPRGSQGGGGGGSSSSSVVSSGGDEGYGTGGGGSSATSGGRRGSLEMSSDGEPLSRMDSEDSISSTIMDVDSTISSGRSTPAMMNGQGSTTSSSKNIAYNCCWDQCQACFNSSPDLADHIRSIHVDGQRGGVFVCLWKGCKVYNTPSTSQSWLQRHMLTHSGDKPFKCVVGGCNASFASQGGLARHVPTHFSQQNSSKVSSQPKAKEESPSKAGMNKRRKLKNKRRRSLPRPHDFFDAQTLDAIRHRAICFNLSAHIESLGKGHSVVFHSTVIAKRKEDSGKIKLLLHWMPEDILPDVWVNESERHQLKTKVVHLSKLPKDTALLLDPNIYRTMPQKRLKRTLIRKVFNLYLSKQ
PRMT8, sequence (Q9NR22 whole entry): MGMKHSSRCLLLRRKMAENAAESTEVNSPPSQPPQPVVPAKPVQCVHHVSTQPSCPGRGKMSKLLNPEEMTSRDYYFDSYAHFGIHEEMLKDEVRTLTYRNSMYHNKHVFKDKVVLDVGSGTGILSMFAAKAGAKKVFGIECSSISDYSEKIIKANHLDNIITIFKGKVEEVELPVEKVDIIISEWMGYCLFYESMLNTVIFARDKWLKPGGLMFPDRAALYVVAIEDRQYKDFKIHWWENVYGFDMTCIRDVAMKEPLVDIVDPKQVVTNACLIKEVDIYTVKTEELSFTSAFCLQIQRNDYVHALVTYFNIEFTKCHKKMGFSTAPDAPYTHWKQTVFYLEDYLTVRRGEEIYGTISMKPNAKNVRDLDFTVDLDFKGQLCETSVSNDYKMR

## Cc1c(C(=O)NC(CCC2CC2)C(=O)Nc2ccc(C#N)cc2)[nH]c2c1C(=O)CC(C)(C)C2 (centres unmarked) [RK-701]
[1]; Time 5, replicate values
  Metabolic stability, % remaining of RK-701: 89% and 81.8%
[1]; Time 10, replicate values
  Metabolic stability, % remaining of RK-701: 86.2% and 80.2%
[1]; Time 20, replicate values
  Metabolic stability, % remaining of RK-701: 63% and 58.9%
[1]; Time 30, replicate values
  Metabolic stability, % remaining of RK-701: 53.3% and 55.8%
[1]; Time 60, replicate values
  Metabolic stability, % remaining of RK-701: 36.1% and 33.5%
[1]; rat, liver microsomes, Metabolic stability, % remaining of RK-701, Rat, Time 5, replicate values
  remaining at 5 min, 1 µM: 89.1%
[1]; rat, liver microsomes, Metabolic stability, % remaining of RK-701, Rat, Time 10, replicate values
  remaining at 10 min, 1 µM: 83.1%
[1]; rat, liver microsomes, Metabolic stability, % remaining of RK-701, Rat, Time 20, replicate values
  remaining at 20 min, 1 µM: 61.7%
[1]; rat, liver microsomes, Metabolic stability, % remaining of RK-701, Rat, Time 60, replicate values
  remaining at 60 min, 1 µM: 35.6%
[1]; rat, liver microsomes, read-out: Metabolic stability in liver microsomes CLint
  microsomal CLint at 1 μM: 33 µL/min/mg
PRMT8
  IC50: > 100 µM
EZH1 [2]
  IC50: > 100 µM
[3]; Time 5, replicate values
  Metabolic stability, % remaining of RK-701: 67.6%
[3]; Time 10, replicate values
  Metabolic stability, % remaining of RK-701: 70.7% and 62.6%
[3]; Time 20, replicate values
  Metabolic stability, % remaining of RK-701: 60.6% and 44.6%
[3]; Time 30, replicate values
  Metabolic stability, % remaining of RK-701: 51.3% and 40.3%
[3]; Time 45, replicate values
  Metabolic stability, % remaining of RK-701: 47% and 30%
[3]; Time 60, replicate values
  Metabolic stability, % remaining of RK-701: 37.6% and 29.4%
[3]; dog, liver microsomes, Metabolic stability, % remaining of RK-701, Dog, Time 5, replicate values
  remaining at 5 min, 1 µM: 72.6%
[3]; dog, liver microsomes, Metabolic stability, % remaining of RK-701, Dog, Time 10, replicate values
  remaining at 10 min, 1 µM: 57%
[3]; dog, liver microsomes, Metabolic stability, % remaining of RK-701, Dog, Time 20, replicate values
  remaining at 20 min, 1 µM: 53.4%
[3]; dog, liver microsomes, Metabolic stability, % remaining of RK-701, Dog, Time 30, replicate values
  remaining at 30 min, 1 µM: 48.4%
[3]; dog, liver microsomes, Metabolic stability, % remaining of RK-701, Dog, Time 45, replicate values
  remaining at 45 min, 1 µM: 37.1%
[3]; dog, liver microsomes, Metabolic stability, % remaining of RK-701, Dog, Time 60, replicate values
  remaining at 60 min, 1 µM: 30.9%
[3]; dog, liver microsomes, Dug, read-out: Metabolic stability in liver microsomes CLint
  microsomal CLint at 1 μM: 28 µL/min/mg
EZH1 [4]
  IC50: > 100 µM
H3K9me2 in HUDEP-2 cells
  cellular H3K9me2 levels: dose-dependent reduction
SUV39H1; SUV39H1, 1 μM SAM
  IC50: > 100 µM
SUV39H1; SUV39H1, RK-701 in duplicate
  IC50: > 100 µM
